Results taken from BindingDB's records for patent US10556885 (Samumed, 2020).

Key:
[1] = target: Dual specificity tyrosine-phosphorylation-regulated kinase 1A (Homo sapiens, UniProt Q13627); assay: Z-lyte Assay
Experimental: All reactions were performed in duplicate.

[2] = target: Glycogen synthase kinase-3 beta (Homo sapiens, UniProt P49841); assay: Z-lyte Assay
Chain of Glycogen synthase kinase-3 beta (P49841 whole entry): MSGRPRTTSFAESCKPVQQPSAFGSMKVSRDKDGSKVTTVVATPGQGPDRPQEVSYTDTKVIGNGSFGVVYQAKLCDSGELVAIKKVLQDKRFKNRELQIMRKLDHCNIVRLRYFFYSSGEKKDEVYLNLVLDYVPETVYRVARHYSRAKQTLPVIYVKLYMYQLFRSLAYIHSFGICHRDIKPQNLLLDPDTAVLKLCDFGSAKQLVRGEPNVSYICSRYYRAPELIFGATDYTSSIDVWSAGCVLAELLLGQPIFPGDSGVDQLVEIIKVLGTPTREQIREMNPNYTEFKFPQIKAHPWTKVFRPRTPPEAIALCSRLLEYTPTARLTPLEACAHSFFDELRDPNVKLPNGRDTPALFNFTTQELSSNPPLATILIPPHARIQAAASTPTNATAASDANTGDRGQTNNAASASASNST

Cc1ncc(-c2ccc3cnc(NC(=O)C4CCC(F)(F)CC4)cc3c2)[nH]1 [US10556885, Compound 121]
EC50 [1]: 3.4 nM
EC50 [2]: 53 nM
